Laboratory results from paper PMC11994375, “In vitro activation of the CB1 receptor by the semi‐synthetic cannabinoids hexahydrocannabinol (HHC), hexahydrocannabinol acetate (HHC‐O) and hexahydrocannabiphorol (HHC‐P)” (Drug Testing and Analysis, 2024).

Each molecule was assayed against T1, human CB1 receptor (Homo sapiens, UniProt P21554) (assay: aequorin luminescence agonist assay, CHO-K1 cells). Settings: agonist mode, tested up to 60 uM; silanized plastic, glass vials; 0.05% BSA assay medium.
T1 construct: gene CNR1; recombinant receptor in CHO-K1 AequoScreen cells (aequorin luminescence line, Revvity ES-110-AF)
T1 sequence (P21554 whole entry): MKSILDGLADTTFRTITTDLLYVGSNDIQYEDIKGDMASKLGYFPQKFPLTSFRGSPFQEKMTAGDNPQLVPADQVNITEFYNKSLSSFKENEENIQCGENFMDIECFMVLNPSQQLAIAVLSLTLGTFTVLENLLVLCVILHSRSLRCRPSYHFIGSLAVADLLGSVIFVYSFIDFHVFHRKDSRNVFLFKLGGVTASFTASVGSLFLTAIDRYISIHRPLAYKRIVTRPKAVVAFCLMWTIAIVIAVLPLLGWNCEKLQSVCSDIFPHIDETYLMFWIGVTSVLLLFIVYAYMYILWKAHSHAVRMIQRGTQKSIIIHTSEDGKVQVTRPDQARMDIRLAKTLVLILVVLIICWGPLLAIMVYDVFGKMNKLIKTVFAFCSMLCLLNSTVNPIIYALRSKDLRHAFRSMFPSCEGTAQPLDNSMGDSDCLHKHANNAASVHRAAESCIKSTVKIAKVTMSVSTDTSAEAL
Assay type: cell-based

For `CCCCCc1cc(OC(C)=O)c2c(c1)OC(C)(C)[C@@H]1CC[C@H](C)C[C@@H]21` [(9S)-HHC-O], the EC50 n.d. was “(9S)‐HHC‐O did not activate the CB1 receptor”.

What follows are molecules tested against T1, human CB1 receptor (assay: aequorin luminescence agonist assay, CHO-K1 cells). Settings: read-out: EC50 (95% CI).
Assay type: cell-based
Excerpt: aequorin luminescence agonist assay, CHO-K1 cells on human CB1 receptor

Point of comparison: `CCCCCCCc1cc(O)c2c(c1)OC(C)(C)[C@@H]1CC[C@H](C)C[C@@H]21` [(9S)-HHC-P], EC50 134 nM. Against it:
- CCCCCn1cc(C(=O)c2cccc3ccccc23)c2ccccc21 [JWH-018, reference compound] — 6-fold lower, 22.5 nM
- CCCCCc1cc(OC(C)=O)c2c(c1)OC(C)(C)[C@@H]1CC[C@@H](C)C[C@@H]21 [(9R)-HHC-O] — higher, > 33000 nM
- CCCCCCCc1cc(O)c2c(c1)OC(C)(C)[C@@H]1CC[C@@H](C)C[C@@H]21 [(9R)-HHC-P] — 3-fold lower, 44.4 nM
- CCCCCc1cc(O)c2c(c1)OC(C)(C)[C@@H]1CC[C@@H](C)C[C@@H]21 [(9R)-HHC] — within 1.5-fold, 101 nM
- CCCCCc1cc(O)c2c(c1)OC(C)(C)[C@@H]1CC[C@H](C)C[C@@H]21 [(9S)-HHC] — 8.9-fold higher, 1190 nM
